According to ChEMBL document CHEMBL1201862, “PubChem BioAssay data set” (2004):
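Briefly, cells in 96-well plates were exposed to five compound concentrations for 48 h, and endpoints were estimated by linear interpolation. Here, GI50 denotes the concentration required for 50% inhibition of growth.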 Active and inactive are the calls of the source. Cut-off read from the data, not from the text of the source: active = GI50 up to about 1.1 µM and inactive = higher.

Assays:
Experiment in all cases: NCI anticancer screen, dose series, 48 h
786-0 = system: 786-0
A498 = system: A498
A549 = system: A549
COLO 205 = system: COLO 205
EKVX = system: EKVX
HCT-15 = system: HCT-15
IGROV-1 = system: IGROV-1
K562 = system: K562
M19-MEL = system: M19-MEL
NCI-H226 = system: NCI-H226
OVCAR-5 = system: OVCAR-5
SK-MEL-28 = system: SK-MEL-28
SK-MEL-5 = system: SK-MEL-5
SN12C = system: SN12C
SNB-75 = system: SNB-75
CAKI-1 = system: CAKI-1
SF-268 = system: SF-268

| Structure (SMILES) | GI50 (786-0) | GI50 (A498) | GI50 (A549) | GI50 (COLO 205) | GI50 (EKVX) | GI50 (HCT-15) | GI50 (IGROV-1) | GI50 (K562) | GI50 (M19-MEL) | GI50 (NCI-H226) | GI50 (OVCAR-5) | GI50 (SK-MEL-28) | GI50 (SK-MEL-5) | GI50 (SN12C) | GI50 (SNB-75) | GI50 (CAKI-1) | GI50 (SF-268) |
| --- | --- | --- | --- | --- | --- | --- | --- | --- | --- | --- | --- | --- | --- | --- | --- | --- | --- |
| COc1ccc2nc3cccc(C(=O)NCCN(C)C)c3nc2c1 | 2.25 µM (inactive) | 1.55 µM (inactive) | 1.8 µM (inactive) | 1.75 µM (inactive) | 3.06 µM (inactive) | 1.43 µM | 2.67 µM (inactive) | 0.794 µM (active) | 1.64 µM (inactive) | 1.32 µM (inactive) | 1.51 µM (inactive) | 2.25 µM (inactive) | 2.04 µM (inactive) | 1.39 µM (inactive) | 2.15 µM (inactive) | – | – |
| CC1=C2C3OC(=O)C(C)C3C(O)C[C@@]2(C)C(=O)CC1 (some centres not stated) | > 100 µM (inactive) | > 100 µM (inactive) | > 100 µM (inactive) | > 100 µM (inactive) | > 100 µM (inactive) | > 100 µM | > 100 µM (inactive) | – | > 100 µM (inactive) | > 100 µM (inactive) | > 100 µM (inactive) | > 100 µM (inactive) | > 100 µM (inactive) | > 100 µM (inactive) | > 100 µM (inactive) | > 100 µM (inactive) | > 100 µM (inactive) |
| CN(C)C(=O)/N=c1\ss/c(=N\C(=S)N(C)C)n1-c1ccccc1 | 19.6 µM (inactive) | 56.8 µM (inactive) | 35.5 µM (inactive) | 35.3 µM (inactive) | > 63.5 µM (inactive) | 15 µM | 29.4 µM (inactive) | 0.294 µM (active) | 31.9 µM (inactive) | 27.2 µM (inactive) | > 90.2 µM (inactive) | 18.1 µM (inactive) | 29.6 µM (inactive) | 45.8 µM (inactive) | 13.8 µM (inactive) | > 100 µM (inactive) | 25.6 µM (inactive) |
| CN(C)CC(/C(Cc1ccccc1)=N\NC(=O)C[n+]1ccccc1)c1ccccc1 (configuration not stated) | > 100 µM (inactive) | > 100 µM (inactive) | > 100 µM (inactive) | > 100 µM (inactive) | > 100 µM (inactive) | > 100 µM | > 100 µM (inactive) | > 100 µM (inactive) | > 100 µM (inactive) | > 100 µM (inactive) | > 100 µM (inactive) | > 100 µM (inactive) | > 100 µM (inactive) | > 100 µM (inactive) | > 100 µM (inactive) | > 100 µM (inactive) | > 100 µM (inactive) |
| O=c1c([Se]c2coc3ccccc3c2=O)coc2ccccc12 | 18.5 µM (inactive) | 19.1 µM (inactive) | 6.3 µM (inactive) | 16.2 µM (inactive) | 18.7 µM (inactive) | 16.9 µM | 10.5 µM (inactive) | 34.1 µM (inactive) | 15.3 µM (inactive) | 14.1 µM (inactive) | 16.2 µM (inactive) | 17.1 µM (inactive) | 16.3 µM (inactive) | 15 µM (inactive) | 15.6 µM (inactive) | 20 µM (inactive) | 19.5 µM (inactive) |
| CC(C)CCCC(C)[C@H]1CCC2[C@@H]3CCC4Nc5c(cnn5-c5ccccc5)C[C@]4(C)C3CC[C@@]21C (some centres not stated) | 15.7 µM (inactive) | 89.5 µM (inactive) | 52.2 µM (inactive) | 8.75 µM (inactive) | 7.52 µM (inactive) | 23.3 µM | > 100 µM (inactive) | 28.1 µM (inactive) | 26.1 µM (inactive) | 17.9 µM (inactive) | 50.1 µM (inactive) | – | 85.1 µM (inactive) | 83 µM (inactive) | 2.88 µM (inactive) | 5.11 µM (inactive) | 85.3 µM (inactive) |
| N#Cc1ccccc1NC(=O)C(=O)C(C(=O)c1ccccc1-c1ccccc1)C1OC(=O)c2ccccc21 (configuration not stated) | 14.8 µM (inactive) | 25.4 µM (inactive) | > 100 µM (inactive) | 21.1 µM (inactive) | 18.5 µM (inactive) | – | 23.5 µM (inactive) | 21.7 µM (inactive) | 14.8 µM (inactive) | 2.58 µM (inactive) | 17.8 µM (inactive) | 18.2 µM (inactive) | > 100 µM (inactive) | – | 14.6 µM (inactive) | – | 14.3 µM (inactive) |
| CCOC(=O)NC(=O)c1cn(CCCOC(=O)CCCCCCCCC(=O)OCCCn2cc(C(=O)NC(=O)OCC)c(=O)[nH]c2=O)c(=O)[nH]c1=O | 15.8 µM (inactive) | 21.7 µM (inactive) | 55.6 µM (inactive) | 18.2 µM (inactive) | 38.1 µM (inactive) | 19.5 µM | 20.9 µM (inactive) | 4.01 µM (inactive) | 12.9 µM (inactive) | – | – | 16.4 µM (inactive) | 21.9 µM (inactive) | 28.2 µM (inactive) | 32.5 µM (inactive) | 7.28 µM (inactive) | – |
| C[n+]1c2ccccc2c(/C=N\NS(=O)(=O)c2ccc(Cl)cc2)c2ccccc21 | 51.9 µM (inactive) | 35.6 µM (inactive) | 23 µM (inactive) | – | > 100 µM (inactive) | 35.9 µM | 43 µM (inactive) | 17.7 µM (inactive) | 81.7 µM (inactive) | 68.2 µM (inactive) | 97.7 µM (inactive) | 94.8 µM (inactive) | 42 µM (inactive) | 56.8 µM (inactive) | 39.4 µM (inactive) | 29.7 µM (inactive) | 69.2 µM (inactive) |
